According to the NIST ThermoML archive (doi:10.1021/acs.jced.7b00964):
Numbers after ± are expanded uncertainties.

Conditions: Liquid, Closed cell (Static) method

Row | Structure (SMILES) | vapor or sublimation pressure (243.15 K) | vapor or sublimation pressure (253.15 K) | vapor or sublimation pressure (263.15 K) | vapor or sublimation pressure (273.15 K) | vapor or sublimation pressure (283.15 K)
1 | FC(F)(F)I [trifluoroiodomethane] | 71.7 ± 1 kPa | 109 ± 1 kPa | 160.4 ± 1 kPa | 228.2 ± 1.1 kPa | 316.3 ± 1.1 kPa
2 | F/C=C/C(F)(F)F [trans-1,3,3,3-tetrafluoropropene] | 61 ± 1 kPa | 97 ± 1 kPa | 147.7 ± 1 kPa | 216.4 ± 1.1 kPa | 308.3 ± 1.1 kPa
3 | CC(C)C [2-methylpropane] | 46.7 ± 1 kPa | 72.6 ± 1 kPa | 108.7 ± 1 kPa | 157.4 ± 1 kPa | 221 ± 1.1 kPa
